From US20260363987A1, “Novel Peptide Exhibiting Skin Condition Improvement Activity and Cosmetic Composition Containing Same” (DAEBONG LS CO., LTD., priority 2023, published 2026)

Assays:
[1] = tested on: B16F10 cells; assay: Melanin synthesis inhibition in α-MSH-treated melanocytes; format: cell-based, mouse; conditions: 72 hours
Description: Mouse-derived melanocytes (B16F10 cells) were obtained from the American Type Culture Collection (ATCC) and used. The cells were cultured in Dulbecco's Modified Eagle's Medium (DMEM) supplemented with 1% penicillin-streptomycin and 10% fetal bovine serum (FBS) at 37 °C in a 5% CO2 incubator, and subcultured every 3 to 4 days.
B16F10 cells were seeded at 6.0×10^4 cells/well in a 6-well plate and cultured for 24 hours at 37 °C in a 5% CO2 incubator. The culture medium was then replaced with phenol red-free, serum-free DMEM, followed by treatment with α-MSH, a melanin production-inducing hormone, and the peptide from the above Preparation Example at concentrations ranging from 1 to 100 μM. The cells were incubated for 72 hours, after which they were collected and lysed with 1 N NaOH in an 80 °C heating block to dissolve intracellular melanin. The absorbance of the resulting solution was measured at 490 nm. The control group was treated with arbutin at a concentration of 500 μg/mL.

[2] = tested on: NHDF cells; assay: Procollagen Type I Peptide (PIP) production, EIA; format: cell-based, human
Description: Normal Human Dermal Fibroblasts (NHDF) were obtained from Lonza (Lonza Walkersville, Inc.) and cultured in FBM (Fibroblast Basal Medium) supplemented with 0.1% hFGF-B, insulin, GA-1000, and 2% FBS at 37 °C in a 5% CO2 incubator. Subculture was performed every 2 to 3 days.
NHDF cells were seeded at 2.0×10^4 cells/well in a 24-well plate and incubated for 24 hours at 37 °C in a 5% CO2 incubator. After incubation, the culture medium was replaced with serum-free FBM, and the peptide prepared in the above Example was applied at concentrations of 1-100 μM, followed by incubation for 24 hours. The supernatant from each experimental group was collected, and the amount of procollagen released into the medium was measured. The positive control group was treated with ascorbic acid at a concentration of 0.001 v/v %. Measurement of procollagen levels was performed using a Procollagen Type I Peptide (PIP) EIA Kit (Takara Biomedical Co.) according to the manufacturer's protocol. The quantitative results of procollagen type I peptide production following treatment with the peptide of the Example are shown in Table 2 and FIG. 3.

[3] = tested on: HaCaT cells; assay: Hyaluronic acid (HA) production, ELISA; format: cell-based, human
Description: The HaCaT human keratinocyte cell line was obtained from Cell Line Service GmbH (Germany). The cells were cultured in DMEM containing 1% penicillin-streptomycin and 10% fetal bovine serum (FBS) at 37 °C in a 5% CO2 incubator, and subculture was performed every 2 to 3 days.
HaCaT cells were seeded at 1.0×10^5 cells/well in a 24-well plate and incubated for 24 hours at 37 °C in a 5% CO2 incubator. After incubation, the culture medium was replaced with serum-free DMEM, and the peptide prepared in the above Example was applied at concentrations of 50-200 μM, followed by incubation for 24 hours. The supernatant from each experimental group was collected, and the amount of hyaluronic acid (HA) released into the medium was measured. The positive control group was treated with N-acetylglucosamine at a concentration of 10 mM. Measurement of hyaluronic acid production was conducted using a Hyaluronic Acid ELISA Kit (Cusabio Biotechnology Co., Ltd.) following the manufacturer's protocol.

Work on `OC[C@H]1O[C@@H](Oc2ccc(O)cc2)[C@H](O)[C@@H](O)[C@@H]1O` [Arbutin, arbutin, reference compound] yielded an activity at 500 µg/mL ([1]; Mus musculus, B16-F10, 500 μg/mL, control, with α-MSH (200 nM), α-MSH alone = 100 ± 3.6, untreated = 75 ± 3.04, read-out: Melanin production) of 59.6 ± 0.8%.

Work on `O=C1O[C@H]([C@@H](O)CO)C(O)=C1O` [Asc.A, ascorbic acid, reference compound] yielded an activity at 10 µg/mL ([2]; Homo sapiens, NHDF, 24 h, 10 μg/mL, positive control, untreated group = 100 ± 1.29) of 159 ± 3.8%.

`CC(=O)N[C@H]1C(O)O[C@H](CO)[C@@H](O)[C@@H]1O` (stereo partly shown) [NAG, N-acetylglucosamine, reference compound] showed an activity at 10000 µM ([3]; Homo sapiens, HaCaT, 24 h, 10 mM, positive control, untreated group = 100 ± 5.15) of 125.5 ± 1.18%.

“Ala-Ala-Gln-Pro-Arg (AAQPR; printed: Ala-Ala-Gln-Pro-Arg)” gave a Procollagen production ([2]; 1 μM, 24 hours, untreated group = 100 ± 1.29) of 105.45 ± 3.15%, a Procollagen production ([2]; 10 μM, 24 hours, untreated group = 100 ± 1.29) of 129.75 ± 9.74% and a Procollagen production ([2]; 50 μM, 24 hours, untreated group = 100 ± 1.29) of 132.64 ± 13.74%. For the same molecule, the Procollagen production ([2]; 100 μM, 24 hours, untreated group = 100 ± 1.29) was 134.92 ± 1.3%, the “procollagen production (in words)” value ([2]; 1-100 μM, 24 hours) was “increase in procollagen production” and the Melanin production ([1]; 1 μM, with α-MSH (200 nM), α-MSH alone = 100 ± 3.6, untreated = 75 ± 3.04) was 100.86 ± 4.32%. For the same molecule, the Melanin production ([1]; 10 μM, with α-MSH (200 nM), α-MSH alone = 100 ± 3.6, untreated = 75 ± 3.04) was 89.62 ± 2.95%, the Melanin production ([1]; 100 μM, with α-MSH (200 nM), α-MSH alone = 100 ± 3.6, untreated = 75 ± 3.04) was 79.76 ± 4.18% and the “melanin production (in words)” value ([1]; 1-100 μM, with α-MSH) was “inhibited melanin production”. For the same molecule, the Hyaluronic acid production ([3]; 50 μM, 24 hours, untreated group = 100 ± 5.15) was 107.14 ± 1.08%, the Hyaluronic acid production ([3]; 100 μM, 24 hours, untreated group = 100 ± 5.15) was 130.93 ± 0.59% and the Hyaluronic acid production ([3]; 200 μM, 24 hours, untreated group = 100 ± 5.15) was 136.91 ± 6.87%. For the same molecule, the “hyaluronic acid production (in words)” value ([3]; 50-200 μM, 24 hours) was “increase in hyaluronic acid production”.
